BindingDB's records for doi:10.7270/Q2Q52N1X (Vanderbilt Screening Center for GPCRs, Ion Channels and …, 2009)
Non-standard residues stand in square brackets, D forms with d. Residues, ends and D or L forms follow the SMILES beside them. ξ: configuration not given here. *: point of attachment. ξF = NC(Cc1ccccc1)C(=O)O; Cbz = O=C(OCc1ccccc1)*

target: T1, Solute carrier family 12 member 5 (Homo sapiens, UniProt Q9H2X9); experiment: KCC2 modulator potency by thallium flux, dose response, cell-based, HEK293 KCC2, FluoZin-2 fluorescence (AID 1736); conditions: not given
T1 sequence (Q9H2X9 whole entry): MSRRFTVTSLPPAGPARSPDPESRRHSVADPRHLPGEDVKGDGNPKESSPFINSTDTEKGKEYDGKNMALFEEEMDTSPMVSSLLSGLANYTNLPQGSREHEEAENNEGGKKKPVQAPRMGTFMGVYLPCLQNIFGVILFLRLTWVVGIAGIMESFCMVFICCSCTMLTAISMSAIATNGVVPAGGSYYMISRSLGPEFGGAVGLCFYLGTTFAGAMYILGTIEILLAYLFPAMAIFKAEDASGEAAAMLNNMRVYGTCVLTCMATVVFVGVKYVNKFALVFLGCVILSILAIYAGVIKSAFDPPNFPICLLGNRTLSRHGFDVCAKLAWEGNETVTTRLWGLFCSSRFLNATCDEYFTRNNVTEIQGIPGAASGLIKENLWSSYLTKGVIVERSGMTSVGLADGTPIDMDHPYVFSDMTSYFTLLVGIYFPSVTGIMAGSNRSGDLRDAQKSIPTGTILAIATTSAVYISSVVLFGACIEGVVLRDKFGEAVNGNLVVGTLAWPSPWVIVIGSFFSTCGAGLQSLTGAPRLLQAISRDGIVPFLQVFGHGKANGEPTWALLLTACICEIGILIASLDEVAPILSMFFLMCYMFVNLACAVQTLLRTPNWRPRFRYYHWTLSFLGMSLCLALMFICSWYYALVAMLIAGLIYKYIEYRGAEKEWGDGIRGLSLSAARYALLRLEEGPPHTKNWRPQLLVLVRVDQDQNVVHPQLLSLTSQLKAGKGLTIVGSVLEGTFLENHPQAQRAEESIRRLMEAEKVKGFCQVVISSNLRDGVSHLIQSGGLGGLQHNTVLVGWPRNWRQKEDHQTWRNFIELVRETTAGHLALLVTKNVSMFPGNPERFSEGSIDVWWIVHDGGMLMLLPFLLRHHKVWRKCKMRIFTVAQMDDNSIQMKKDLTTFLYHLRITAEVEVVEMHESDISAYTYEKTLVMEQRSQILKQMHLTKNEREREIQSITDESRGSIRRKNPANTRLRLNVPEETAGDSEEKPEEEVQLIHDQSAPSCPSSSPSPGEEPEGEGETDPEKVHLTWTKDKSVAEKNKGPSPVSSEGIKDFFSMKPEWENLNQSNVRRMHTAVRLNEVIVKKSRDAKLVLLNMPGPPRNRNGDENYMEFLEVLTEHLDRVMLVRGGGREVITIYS

Structure (SMILES)	EC50
O=C(NC(=S)Nc1nc(-c2cccc([N+](=O)[O-])c2)cs1)c1ccccc1Cl [2-chloranyl-N-[[4-(3-nitrophenyl)-1,3-thiazol-2-yl]carbamothioyl]benzamide]	6.81 µM
CC(C)(C)NC(=O)C(c1ccncc1)N(Cc1ccco1)C(=O)c1ccc(-c2ccccc2)[nH]1 (configuration not stated) [N-[2-(tert-butylamino)-2-oxo-1-pyridin-4-ylethyl]-N-(furan-2-ylmethyl)-5-phenyl-1H-pyrrole-2-carboxamide]	26.6 µM
O=[N+]([O-])c1cc(-n2c(O)c3c(c2O)CCCC3)ccc1NC1CCN(Cc2ccccc2)CC1 [2-[3-nitro-4-[[1-(phenylmethyl)-4-piperidinyl]amino]phenyl]-3a,4,5,6,7,7a-hexahydroisoindole-1,3-dione]	5.5 µM
COc1ccccc1NC(=S)NNC1=c2cc(Br)ccc2=NC1=O [MLS000778253]	0.363 µM
Cc1ccc(/C=C2/Sc3ccccc3N(CC(=O)NCCCOC(C)C)C2=O)cc1 [2-[(2E)-2-[(4-methylphenyl)methylidene]-3-oxidanylidene-1,4-benzothiazin-4-yl]-N-(3-propan-2-yloxypropyl)ethanamide]	276 µM
CCOC(=O)CNC(=O)C(Cc1ccccc1)NC(=O)OCc1ccccc1 (configuration not stated) [2-[[1-oxo-3-phenyl-2-(phenylmethoxycarbonylamino)propyl]amino]acetic acid ethyl ester] (Cbz-[ξF]-Gly-OEt)	5.03 µM
CCCn1c(N)c(C(=O)CSc2nnc(Cc3ccccc3)o2)c(=O)n(C)c1=O [6-amino-3-methyl-5-[1-oxo-2-[[5-(phenylmethyl)-1,3,4-oxadiazol-2-yl]thio]ethyl]-1-propylpyrimidine-2,4-dione]	0.00011 µM
Cc1cccc(Nc2nnc(SCC(=O)c3ccc(Br)s3)s2)c1C [1-(5-bromanylthiophen-2-yl)-2-[[5-[(2,3-dimethylphenyl)amino]-1,3,4-thiadiazol-2-yl]sulfanyl]ethanone]	1.49 µM
Sc1nnc(C2(c3ccccc3)CCCC2)o1 [5-(1-phenylcyclopentyl)-3H-1,3,4-oxadiazole-2-thione]	1.54 µM
O=C(NNc1nc(-c2ccc(F)cc2)cs1)c1ccccc1 [MLS000763429]	0.806 µM
CN(CC(=O)N1CCN(Cc2ccccc2)CC1)S(=O)(=O)c1cccc2nsnc12 [MLS000674627]	0.953 µM
CNc1ccc(/C=C(\CCC(=O)O)c2nc3ccccc3s2)cc1[N+](=O)[O-] [MLS000394200]	7.48 µM
O=C(OCc1ccccn1)c1ccc(COc2ccccc2Cl)o1 [5-(2-Chloro-phenoxymethyl)-furan-2-carboxylic acid pyridin-2-ylmethyl ester]	6.49 µM
N#CC(C(=O)c1cccc(F)c1)c1nc2ccccc2s1 (configuration not stated) [(2Z)-2-(3H-1,3-benzothiazol-2-ylidene)-3-(3-fluorophenyl)-3-keto-propionitrile]	9.66 µM
O=C(O)/C=C/c1cn(Cc2ccccc2)nc1-c1ccccc1 [MLS000567315]	13700 µM
O=C(NCc1cccnc1)c1ccc(COc2ccccc2Br)o1 [5-[(2-bromanylphenoxy)methyl]-N-(pyridin-3-ylmethyl)furan-2-carboxamide]	9.14 µM
CN(C)S(=O)(=O)c1cccc(NC(=O)c2cc3c(cc2Cl)N2CCCCC=C2NS3(=O)=O)c1 [2-chloranyl-N-[3-(dimethylsulfamoyl)phenyl]-5,5-bis(oxidanylidene)-8,9,10,11-tetrahydro-7H-azepino[2,1-c][1,2,4]benzothiadiazine-3-carboxamide]	0.0676 µM

Structure (SMILES)	EC50
COc1ccc(S(=O)(=O)N(CCc2ccccc2)CC(=O)O)cc1Cl [2-[(3-chloranyl-4-methoxy-phenyl)sulfonyl-(2-phenylethyl)amino]ethanoic acid]	3.8 µM
Sc1nnc(CCc2ccc(Cl)cc2)o1 [5-[2-(4-chlorophenyl)ethyl]-1,3,4-oxadiazole-2-thiol]	2.47 µM
Sc1nnc(Cc2c[nH]c3ccccc23)o1 [5-(1H-indol-3-ylmethyl)-1,3,4-oxadiazole-2(3H)-thione]	3.76 µM
CN1C(=O)/C(=C/c2ccccc2OCc2ccccc2)NC1=S [(5Z)-3-methyl-5-[(2-phenylmethoxyphenyl)methylidene]-2-sulfanylidene-4-imidazolidinone]	7.64 µM
O=C(NC(=S)Nc1nc(-c2cccc([N+](=O)[O-])c2)cs1)c1cc(Cl)ccc1Cl [2,5-bis(chloranyl)-N-[[4-(3-nitrophenyl)-1,3-thiazol-2-yl]carbamothioyl]benzamide]	34.7 µM
Cc1ccc(Cn2nnc3c(=O)[nH]c(C4CCN(S(=O)(=O)c5ccc(F)cc5)CC4)nc32)cc1 [5-[1-(4-fluorophenyl)sulfonylpiperidin-4-yl]-3-[(4-methylphenyl)methyl]-2H-triazolo[4,5-d]pyrimidin-7-one]	11.1 µM
CCOc1cc(S(=O)(=O)NCc2ccccc2)ccc1F [3-ethoxy-4-fluoranyl-N-(phenylmethyl)benzenesulfonamide]	4.68 µM
O=S(=O)(Nc1nc2ccccc2nc1N1CCN(c2ccccn2)CC1)c1ccc(Cl)cc1 [4-chloranyl-N-[3-(4-pyridin-2-ylpiperazin-1-yl)quinoxalin-2-yl]benzenesulfonamide]	9.37 µM
COc1ccc(C(=O)N2CCCC(c3ccccc3)C2)cc1 (configuration not stated) [(4-methoxyphenyl)-(3-phenyl-1-piperidinyl)methanone]	110 µM
CCC(Sc1nc(C)cc(=O)[nH]1)C(=O)Nc1sc2c(c1C#N)CCCC2 (configuration not stated) [MLS000112919]	25.6 µM
CCc1ccc(Nc2nnc(SCC(=O)Nc3sccc3C(N)=O)s2)cc1 [2-[2-[[5-[(4-ethylphenyl)amino]-1,3,4-thiadiazol-2-yl]sulfanyl]ethanoylamino]thiophene-3-carboxamide]	6.01 µM
N#Cc1nc(-c2ccco2)oc1N1CCN(Cc2ccccc2)CC1 [2-(2-furanyl)-5-[4-(phenylmethyl)-1-piperazinyl]-4-oxazolecarbonitrile]	4.59 µM
COc1ccc(OC)c(-n2nnnc2SCC(=O)NCCc2ccccc2)c1 [2-[1-(2,5-Dimethoxy-phenyl)-1H-tetrazol-5-ylsulfanyl]-N-phenethyl-acetamide]	242 µM
O=C(COC(=O)c1cc([N+](=O)[O-])ccc1NCCO)c1ccccc1 [2-(2-hydroxyethylamino)-5-nitro-benzoic acid phenacyl ester]	41.9 µM
O=C(NCCc1cn2ccccc2n1)c1cc(COc2c(F)cccc2F)on1 [5-[(2,6-difluorophenoxy)methyl]-N-(2-imidazo[1,2-a]pyridin-2-ylethyl)-1,2-oxazole-3-carboxamide]	7.6 µM
O=C(O)CCn1c(SCc2cccc3ccccc23)nc2ccccc21 [3-[2-(1-naphthalenylmethylthio)-1-benzimidazolyl]propanoic acid]	0.619 µM
O=C(Cn1cnc2c(nnn2-c2ccccc2)c1=O)NCCc1ccccc1 [2-(7-keto-3-phenyl-triazolo[4,5-d]pyrimidin-6-yl)-N-phenethyl-acetamide]	1.17 µM

same assay, conditions: inactive by the depositor's call

Structure (SMILES)	EC50
CN(CC(=O)N1CC(=O)N(CCc2ccccc2)C(=O)C1)S(=O)(=O)c1cccc2nsnc12 [MLS000095099]	2270 µM
S=C(NCCc1ccccc1)NCc1cccs1 [1-(2-phenylethyl)-3-(thiophen-2-ylmethyl)thiourea]	5.82 µM
Cc1ccc(C=Nn2c(-c3ccc(Cl)cc3)n[nH]c2=S)s1 [3-(4-chlorophenyl)-4-[(5-methyl-2-thiophenyl)methylideneamino]-1H-1,2,4-triazole-5-thione]	188 µM
